Article PMC11123921, “Synthesis and Evaluation of 5-(Heteroarylmethylene)hydantoins as Glycogen Synthase Kinase-3β Inhibitors” (Pharmaceuticals, 2024)
Where a name gives a salt, the structure may show the parent alone. Read-outs that look alike come from different tables or passages of the source.

How the values were obtained:
[1] = molecular target: T1, Staphylococcus aureus pyruvate carboxylase (SaPC) (Staphylococcus aureus, UniProt A0A0H3JRU9); assay: biochemical; settings: isolated SaPC
T1 sequence (A0A0H3JRU9 1-1150): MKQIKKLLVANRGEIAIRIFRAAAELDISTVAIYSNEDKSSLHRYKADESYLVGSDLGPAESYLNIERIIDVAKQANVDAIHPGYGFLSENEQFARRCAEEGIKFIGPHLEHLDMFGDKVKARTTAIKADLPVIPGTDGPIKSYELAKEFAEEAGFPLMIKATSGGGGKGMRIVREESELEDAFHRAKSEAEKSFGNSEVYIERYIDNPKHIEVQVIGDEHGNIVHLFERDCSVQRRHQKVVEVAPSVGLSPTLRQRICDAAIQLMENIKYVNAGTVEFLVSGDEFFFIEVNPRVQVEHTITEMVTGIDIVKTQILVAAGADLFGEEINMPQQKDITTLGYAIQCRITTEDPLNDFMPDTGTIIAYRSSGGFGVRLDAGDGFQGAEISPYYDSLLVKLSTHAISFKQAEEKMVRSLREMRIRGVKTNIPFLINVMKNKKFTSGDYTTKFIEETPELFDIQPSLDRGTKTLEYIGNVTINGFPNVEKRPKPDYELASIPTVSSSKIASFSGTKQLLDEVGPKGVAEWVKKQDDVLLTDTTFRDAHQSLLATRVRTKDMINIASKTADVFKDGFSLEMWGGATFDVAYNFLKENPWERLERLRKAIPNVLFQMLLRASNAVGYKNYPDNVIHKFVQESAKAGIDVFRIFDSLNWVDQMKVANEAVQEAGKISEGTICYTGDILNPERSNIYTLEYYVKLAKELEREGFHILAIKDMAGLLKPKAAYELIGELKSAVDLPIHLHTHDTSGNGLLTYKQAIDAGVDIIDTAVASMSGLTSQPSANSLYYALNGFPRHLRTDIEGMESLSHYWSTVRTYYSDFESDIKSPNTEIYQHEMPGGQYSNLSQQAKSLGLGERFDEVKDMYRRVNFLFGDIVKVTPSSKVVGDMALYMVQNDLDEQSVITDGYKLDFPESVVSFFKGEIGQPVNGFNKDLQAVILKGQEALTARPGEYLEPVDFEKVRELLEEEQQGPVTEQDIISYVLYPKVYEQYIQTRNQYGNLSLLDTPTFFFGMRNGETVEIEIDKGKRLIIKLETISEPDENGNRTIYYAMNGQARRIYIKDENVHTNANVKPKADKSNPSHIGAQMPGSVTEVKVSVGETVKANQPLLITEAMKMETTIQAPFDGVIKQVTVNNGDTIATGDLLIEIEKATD

[2] = molecular target: human matrix metalloproteinase-12 (Homo sapiens, UniProt P39900); assay: Matrix metalloproteinase-12 fluorogenic substrate assay; assay type: biochemical; settings: for activity at 25 µM: 25 μM compound, read-out: MMP-12 % Activity @ 25 μM; for activity at 200 µM: 200 μM compound, read-out: MMP-12 % Activity @ 200 μM
Sequence of human matrix metalloproteinase-12 (P39900 106-470): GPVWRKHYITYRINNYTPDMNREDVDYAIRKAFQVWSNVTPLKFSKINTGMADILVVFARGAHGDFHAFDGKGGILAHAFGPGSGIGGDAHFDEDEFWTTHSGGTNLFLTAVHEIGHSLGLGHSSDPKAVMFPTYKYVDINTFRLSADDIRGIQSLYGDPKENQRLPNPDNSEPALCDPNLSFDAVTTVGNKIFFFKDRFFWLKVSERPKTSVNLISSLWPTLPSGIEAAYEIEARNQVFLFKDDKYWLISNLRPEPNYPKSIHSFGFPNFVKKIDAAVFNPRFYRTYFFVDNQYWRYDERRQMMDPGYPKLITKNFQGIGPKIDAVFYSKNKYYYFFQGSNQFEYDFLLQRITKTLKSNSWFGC
Experimental: (§1) 5-(Heteroarylmethylene)hydantoins were evaluated as inhibitors for MMP-12 at fixed concentrations of 200 and 25 μM (Table 1). At 200 μM of 20–24, the activity of MMP-12 was ≤50% the activity of positive control; for compounds 21, 24, and 25 at 25 μM, the activity of MMP12 was 69–74% while the activity for the others was >80%. […] A select subset of the 5-(heteroarylmethylene)hydantoins were evaluated as inhibitors of human carbonic anhydrase II (hCAII) at 200 μM (Table 1). […] Finally, this same subset of 5-(heteroarylmethylene)hydantoins were evaluated as inhibitors of isolated S. aureus pyruvate carboxylase (SaPC) in a fixed-time assay (Table 1). No inhibitory activity was observed up to 1000 μM.
Assays for human matrix metalloproteinase-12 activity were performed in a 96-well plate format for a total reaction volume of 100 μL, in an assay modified from Day and Cohen. All assay reagents were prepared and maintained at 22 °C until warmed to 37 °C. The omniMMP fluorogenic substrate and MMP-12 enzyme were prepared in assay buffer (50 mM HEPES, 10 mM CaCl2, 0.05% Brij-35, pH of 7.52), and small molecule effectors were prepared as a solution in 50% DMSO, 50% assay buffer. The final concentration of enzyme in the 100 μL enzymatic reaction was 0.0083 U/μL. A known inhibitor, N-[(4’-bromo [1,1’-biphenyl]-4-yl)sulfonyl]-L-valine (PD166793), was included where noted at a final concentration of 100 μM. OmniMMP fluorogenic substrate was added to the 100 μL enzymatic reaction at a final concentration of 4 μM. For all experiments, 30 μL of enzyme stock solution was added to each well in a 96-well, flat-bottom, black polystyrene microplate (SantaCruz Biotechnology, Dallas, TX, USA), followed by the addition of 10 μL of the effectors (50% assay buffer, 50% DMSO for the uninhibited reaction, PD166793 for the inhibition). The 96-well plate was then incubated in a plate reader at 37 °C for 30 min; concurrently, the substrate solution was also warmed to 37 °C for 30 min. The enzymatic reaction was initiated by adding 60 μL of the omniMMP fluorogenic substrate solution. The change in fluorescence was then monitored for 30 min with excitation and emission wavelengths at 320 and 400 nm, respectively, every 46 s for a total of 40 measurements.

GSK-3β [3] = molecular target: T2, GSK-3β (Homo sapiens, UniProt P49841); assay: GSK-3β kinase HotSpot assay (Reaction Biology); assay type: biochemical; settings: 10 μM ATP; for activity at 25 µM: 25 μM compound, duplicate, average, remaining kinase activity vs vehicle; for IC50: 10-point, triplicate, average ± SD
T2 sequence (P49841 whole entry): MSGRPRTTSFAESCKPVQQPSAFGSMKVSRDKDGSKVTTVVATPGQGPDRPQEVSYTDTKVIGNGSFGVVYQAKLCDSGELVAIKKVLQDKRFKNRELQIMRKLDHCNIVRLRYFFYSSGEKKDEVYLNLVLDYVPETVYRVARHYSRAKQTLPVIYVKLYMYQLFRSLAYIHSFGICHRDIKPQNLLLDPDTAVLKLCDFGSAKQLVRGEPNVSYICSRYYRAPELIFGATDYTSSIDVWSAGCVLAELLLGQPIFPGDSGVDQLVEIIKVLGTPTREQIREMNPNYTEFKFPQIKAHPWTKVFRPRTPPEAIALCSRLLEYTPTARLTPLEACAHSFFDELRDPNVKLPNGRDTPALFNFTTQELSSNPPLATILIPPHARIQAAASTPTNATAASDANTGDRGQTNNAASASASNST

[4] = molecular target: human carbonic anhydrase II (hCAII) (Homo sapiens, UniProt P00918); assay: Human carbonic anhydrase II p-nitrophenyl acetate assay; assay type: biochemical; settings: 200 μM compound
Experimental: as §1
Assays for human carbonic anhydrase II activity were performed in a 96-well plate format for a total reaction volume of 100 μL, in an assay modified from Day and Cohen. All assay reagents and solutions were prepared separately and maintained at 22 °C until warmed to 30 °C. All substrates, effectors, and enzyme were freshly dissolved and diluted in assay buffer containing 50 mM Tris (pH 8.0). The final concentration of the human carbonic anhydrase II enzyme was 200 nM. Where noted, acetazolamide was included at a final concentration of 10 μM. The substrate, p-nitrophenyl acetate, was added at a final concentration of 504 μM. For all experiments, 20 μL of enzyme stock solution was added to each well in a 96-well, flat-bottom, polystyrene microplate (Santa Cruz Biotechnology, Dallas, TX, USA), followed by the addition of 10 μL of the effectors (assay buffer for the uninhibited reaction, acetazolamide for the inhibition). The 96-well plate was then incubated in a plate reader at 30 °C for 10 min; concurrently, the substrate solution was also warmed to 30 °C for 10 min. The enzymatic reaction was initiated by adding 70 μL of the substrate solution (p-nitrophenyl acetate). The absorbance values were then measured at 405 nm every 30 s over a period of 20 min for a total of 40 measurements.

cancer migration = test system: cancer migration; design: method as in PMID 20869139; settings: cited from earlier work
GSK-3β [5] = molecular target: T2, GSK-3β; settings: cited from earlier work

Molecule	IC50 [1] [µM]	activity at 25 µM [2] [%]	activity at 200 µM [2] [%]	activity at 25 µM (GSK-3β [3]) [%]	activity at 200 µM [4] [%]	melting point [°C]	IC50 (GSK-3β [3]) [µM]	hCAII % Activity @ 200 μM ([4]; 200 µM) [%]	activity as cancer migration inhibitors (cancer migration)	IC50 (GSK-3β [5]) [µM]
O=C1NC(=O)/C(=C/c2ncccc2Cl)N1 [Compound 24, (Z)-5-[(3′-Chloro-2-pyridinyl)methylene]-2,4-imidazolidinedione-HCl]	> 1000	69.1	39.2	44.6	91.8 ± 14.7					
O=C1NC(=O)/C(=C/c2cccc(Br)n2)N1 [Compound 27, (Z)-5-[(6′-Bromo-2-pyridinyl)methylene]-2,4-imidazolidinedione]	> 1000	85.8	88.7	17	86.7 ± 12.1	> 250	3.39 ± 0.16			
Cc1ccnc(/C=C2\NC(=O)NC2=O)c1 [Compound 21, (Z)-5-[(4′-Methyl-2-pyridinyl)methylene]-2,4-imidazolidinedione-HCl]	> 1000	71.6	28.5	42	94.8 ± 12.8					
O=C1NC(=O)/C(=C/c2cc(Cl)ccn2)N1 [Compound 25, (Z)-5-[(4′-Chloro-2-pyridinyl)methylene]-2,4-imidazolidinedione-HCl]	> 1000	73.9	50	15.4	57 ± 16.4		2.14 ± 0.18			
COc1cccc(/C=C2\NC(=O)NC2=O)n1 [Compound 15, (Z)-5-[(6′-Methoxy-2-pyridinyl)methylene]-2,4-imidazolidinedione]	> 1000	87.5	74	17.3	82.1 ± 11	249 to 251	4.06 ± 0.3			
O=C1NC(=O)/C(=C/c2ccc3ncccc3c2)N1 [Compound 28, (Z)-5-[(6′-Quinolinyl)methylene]-2,4-imidazolidinedione]		81.8	61.6	22.5		> 250	7.82 ± 0.12			
O=C1NC(=O)/C(=C/c2csc3ccccc23)N1 [Compound 29, (Z)-5-[(3-Benzo[b]thiophenyl)methylene]-2,4-imidazolidinedione]	> 1000	98.1	88	27.9	63	> 250		62.7 ± 9.8		
Cc1ccc(/C=C2\NC(=O)NC2=O)nc1 [Compound 22, (Z)-5-[(5′-Methyl-2-pyridinyl)methylene]-2,4-imidazolidinedione]	> 1000	101	40.7	47	87.4 ± 11.8	> 250				
O=C1NC(=O)/C(=C/c2cccc(-c3cccs3)n2)N1 [Compound 16]									notable activity	
O=C1NC(=O)/C(=C/c2ccccn2)N1 [Compound 17, (Z)-5-[(2′-Pyridinyl)methylene]-2,4-imidazolidinedione]				55.4		231 to 233				
O=C1NC(=O)/C(=C/c2cccnc2)N1 [Compound 19, (Z)-5-[(3′-Pyridinyl)methylene]-2,4-imidazolidinedione]	> 1000	84.2	50.6	71.8	88.9 ± 12.3	> 255				
O=C1NC(=O)/C(=C/c2ccc(Br)cn2)N1 [Compound 26, (Z)-5-[(5′-Bromo-2-pyridinyl)methylene]-2,4-imidazolidinedione]		98.6	72.9	35.3		> 255				
Cc1cccnc1/C=C1\NC(=O)NC1=O [Compound 20, (Z)-5-[(3′-Methyl-2-pyridinyl)methylene]-2,4-imidazolidinedione]		108	39.6	31.6		245 to 248				
Cc1cccc(/C=C2\NC(=O)NC2=O)n1 [Compound 23, (Z)-5-[(6′-Methyl-2-pyridinyl)methylene]-2,4-imidazolidinedione-HCl]	> 1000	86.4	46.5	28.4	88.9 ± 12.3		8.34 ± 0.27			
O=C1NC(=O)/C(=C/c2ccc3ccccc3n2)N1 [Compound 18, (Z)-5-[(2-Quinolinyl)methylene]-2,4-imidazolidinedione]	> 1000	94.1	57.6	32.9		> 255				
indirubin-3-monoxime										0.022
